Read-outs that look alike come from different tables or passages of the source.

Consider 13 molecules from publication PMC3756936 (Journal of medicinal chemistry, 2013).

The test system of one data set is CHO. Conditions: Chinese hamster.
In the next data set the test system is COS. The settings on record: African green monkey.
The subject of another data set is HEK293 cells. The settings on record: human.
Data set [1] is described as follows: Mouse liver microsomal stability. The settings on record: liver microsomes, 37 °C. The format is in vitro ADME. Background: Microsomes from liver hold many membrane-bound enzymes, among them those of drug oxidation.
For another data set, the target named is T1, CpIMPDH (Cryptosporidium parvum, UniProt Q8T6T2).
T1 sequence (Q8T6T2 1-400): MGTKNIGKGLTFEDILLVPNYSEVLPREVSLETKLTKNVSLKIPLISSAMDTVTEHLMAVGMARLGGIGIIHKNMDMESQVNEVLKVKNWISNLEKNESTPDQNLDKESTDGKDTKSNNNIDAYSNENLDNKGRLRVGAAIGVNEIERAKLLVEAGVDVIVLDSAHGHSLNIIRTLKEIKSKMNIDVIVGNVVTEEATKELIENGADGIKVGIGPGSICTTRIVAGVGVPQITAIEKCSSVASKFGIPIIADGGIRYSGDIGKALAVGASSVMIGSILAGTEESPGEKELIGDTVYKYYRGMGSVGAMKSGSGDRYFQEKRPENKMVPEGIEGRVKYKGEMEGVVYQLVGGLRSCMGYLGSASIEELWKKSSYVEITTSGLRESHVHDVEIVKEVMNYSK
Kind of data set: biochemical. The settings on record: for inhibition mechanism with respect to NAD+: best fit; for inhibition mechanism with respect to NAD+ / inhibition mechanism with respect to IMP: in words. The class given is biochemical.

The next data set has as its system HeLa. Conditions: human.
Data set [2] deals with Toxo/CpIMPDH (T. gondii strain that relies on CpIMPDH). Kind of data set: microbe, parasite or virus in culture. The class given is cell-based, Toxoplasma gondii. The settings on record: for EC50: Toxoplasma gondii, read-out: EC50 Toxo/CpIMPDH.

Regarding `C[C@H](Nc1cccc(Cl)c1Cl)C(=O)Nc1ccc2oc(-c3ccncc3)nc2c1` [15a, (S)-2-(2,3-dichlorophenylamino)-N-(2-(pyridine-4-yl)benzo[d]oxazol-5-yl) propionamide], the LD50 in the data set on CHO, in the data set with COS and with HEK293 cells was more than 50 µM throughout.

As for `C[C@H](Oc1cccc(Cl)c1Cl)C(=O)Nc1ccc2nc(-c3ccncc3)oc2c1` [40a, (S)-2-(2,3-dichlorophenoxy)-N-(2-(pyridin-4-yl)benzo[d]oxazol-6-yl)propionamide], the half-life (usually how long it takes for the measured level to halve) in data set [1] (t1/2 (min) + NADPH, + NADPH) is not above 12 min; in data set [1] (t1/2 (min) − NADPH, − NADPH), not above 12 min. The LD50 with CHO, in the data set with COS and in the data set on HEK293 cells was more than 50 µM throughout.

As for `CC(Oc1ccc(Cl)cc1Cl)C(=O)Nc1ccc2oc(-c3ccncc3)nc2c1` (stereo not drawn) [compound 1], the affinity at CpIMPDH (Kis (nM), Substrate IMP), expressed as Ki, was 58 ± 5 nM. Further, the affinity on CpIMPDH (Kis (nM), Substrate NAD), expressed as Ki, was 33 ± 8 nM. In addition, on CpIMPDH, the “inhibition mechanism with respect to NAD+” value is “competitive” and the “inhibition mechanism with respect to IMP” value is “noncompetitive”.

In the case of `CC(Oc1ccccc1Cl)C(=O)Nc1ccc2oc(-c3ccncc3)nc2c1` (stereo not drawn) [compound 41, 2-(2-chlorophenoxy)-N-(2-(pyridine-4-yl)benzo[d]oxazol-5-yl)propionamide], the LD50 is more than 50 µM with CHO, more than 50 µM with HeLa, more than 50 µM in the data set with COS and ~ 12.5 μM in the data set with HEK293 cells.

Take `COc1ccc(OC(C)C(=O)Nc2ccc3oc(-c4ccncc4)nc3c2)cc1` (stereo not drawn) [compound 44, 2-(4-methoxyphenoxy)-N-(2-(pyridine-4-yl)benzo[d]oxazol-5-yl)propionamide]: the LD50 in the data set with CHO, with COS and with HEK293 cells was more than 50 µM in each case.

For the molecule `CC(Oc1cccc(Cl)c1Cl)C(=O)Nc1ccc2oc(-c3ccncc3)nc2c1` (stereo not drawn) [compound 46, 2-(2,3-dichlorophenoxy)-N-(2-(pyridine-4-yl)benzo[d]oxazol-5-yl)propionamide], the LD50 with CHO, in the data set with COS and in the data set with HEK293 cells was more than 50 µM each time. Moreover, the “selectivity versus Toxo/WT” value in data set [2] is given as more than 30 fold. In data set [2], the EC50 is not above 250 nM.

`CC(Oc1cccc2ccccc12)C(=O)Nc1ccc2oc(-c3ccncc3)nc2c1` (stereo not drawn) [compound 48, 2-(naphthalene-1-yloxy)-N-(2-(pyridine-4-yl)benzo[d]oxazol-5-yl)propionamide]: in data set [2], the “selectivity versus Toxo/WT” value is listed as more than 30 fold and the EC50 was not above 250 nM.

`C[C@H](Oc1cccc(Cl)c1Cl)C(=O)Nc1ccc2oc(-c3ccncc3)nc2c1` [compound 55, (S)-2-(2,3-dichlorophenoxy)-N-(2-(pyridin-4-yl)benzo[d]oxazol-5-yl)propionamide]: the half-life in data set [1] (t1/2 (min) + NADPH, + NADPH) is not above 12 min; in data set [1] (t1/2 (min) − NADPH, − NADPH), not above 12 min.

For `C[C@H](Oc1cccc([N+](=O)[O-])c1Cl)C(=O)Nc1ccc2oc(-c3ccncc3)nc2c1` [compound 57, (S)-2-(2-chloro-3-nitrophenoxy)-N-(2-(pyridine-4-yl)benzo[d]oxazol-5-yl)propionamide], the LD50 in the data set with CHO, in the data set with COS and in the data set with HEK293 cells was more than 50 µM throughout.

`C[C@H](Oc1cccc(Cl)c1Cl)C(=O)Nc1ccc2oc(-c3cncs3)nc2c1` [compound 62, (S)-2-(2,3-dichlorophenoxy)-N-(2-(thiazol-5-yl)benzo[d]oxazol-5-yl)propionamide]: the half-life in data set [1] (t1/2 (min) + NADPH, + NADPH) is not above 12 min; in data set [1] (t1/2 (min) − NADPH, − NADPH) it was not above 12 min.

With `C[C@H](Oc1cccc2ccccc12)C(=O)Nc1ccc2oc(-c3cncs3)nc2c1` [compound 63, (S)-2-(naphthalene-1-yloxy)-N-(2-(thiazol-5-yl)benzo[d]oxazol-5-yl)propionamide], at CpIMPDH (Kis (nM), Substrate IMP), affinity was put at a Ki of 1.6 ± 0.7 nM. Moreover, the affinity on CpIMPDH (Kis (nM), Substrate NAD), expressed as Ki, was 0.9 ± 0.3 nM. Also, on CpIMPDH, the “inhibition mechanism with respect to NAD+” value is “competitive” and the “inhibition mechanism with respect to IMP” value is recorded as “noncompetitive”.

For the molecule `C[C@H](Oc1cccc(Cl)c1Cl)C(=O)Nc1cc(Cl)c2oc(-c3ccncc3)nc2c1` [compound 68, (S)-N-(7-chloro-2-(pyridin-4-yl)benzo[d]oxazol-5-yl)-2-(2,3-dichlorophenoxy)propionamide], at CpIMPDH, the affinity corresponds to a Ki of 150 ± 30 nM, the “inhibition mechanism with respect to NAD+” value was “competitive” and the “inhibition mechanism with respect to IMP” value was “noncompetitive”. The Ki (as a rule, the equilibrium dissociation constant of an inhibitor or competing ligand from its target) on CpIMPDH (Kis (nM), Substrate IMP) was determined as 210 ± 10 nM.

As for `C[C@@H](C(=O)Nc1ccc2oc(-c3ccncc3)nc2c1)c1ccccc1` [compound 72, (R)-2-phenyl-N-(2-(pyridine-4-yl)benzo[d]oxazol-5-yl)propionamide], the Ki at CpIMPDH (Kis (nM), Substrate IMP) worked out at 100 ± 20 nM. Besides, at CpIMPDH (Kis (nM), Substrate NAD), the affinity corresponds to a Ki of 40 ± 10 nM. For the same molecule, at CpIMPDH, the “inhibition mechanism with respect to NAD+” value is listed as “competitive” and the “inhibition mechanism with respect to IMP” value was “noncompetitive”.
